For this data set, the system named is NRVMs. Description: Toxicity of the nuclear label to NRVMs during dye loading. To be noted: 200 ng/ml in loading solution, 25 minutes. It counts as cell-based, rat. As to the method:
Sensitivity to intracellular calcium kinetics is a desirable goal for automated calcium transient image cytometry because it is desirable to distinguish healthy contractile ESCMs from background non-contractile stem cells. […] The cells were maintained 48 to 72 hrs prior to scanning. On the day of scanning, the cells were incubated with a 3 μM solution of the acetyoxymethylester form of an intracellular calcium indicator (either Fluo-4 AM or Fluo-3 AM) in the base media for 25 minutes. The plasma membrane permeable to the acetoxymethylester forms of Fluo-3 and Fluo-4, which are modified intracellularly by esterases to an impermeable form. The loading solution was also supplemented with 200 ng/ml Hoechst 33342 to label DNA within the nuclei. This concentration of Hoechst provides adequate label of the nuclei and was non-toxic under these conditions. Thus, the labeling procedure introduced a green-fluorescence channel fluorescent calcium indicator into the cytoplasm of the NRVMs (Fluo-4) and a blue-fluorescence channel nuclear stain (Hoechst). The nuclear channel was used for autofocus at each well; additionally, images obtained of the nuclei provided information regarding cellular position that was helpful in assigning boundaries between cells in the segmentation procedure applied to the green-channel images. […]

In the case of `CCOc1ccc(-c2nc3ccc(-c4nc5ccc(N6CCN(C)CC6)cc5[nH]4)cc3[nH]2)cc1` [Hoechst 33342], the “toxicity of the nuclear label under loading conditions” value is given as “non-toxic”.

For the origin of these results see patent US9315847B2, “Automated transient image cytometry” (priority 2009, dated 2016).
